Laboratory results as given in PMC4468202, “Improved Visualization and Specific Binding for Metabotropic Glutamate Receptor Subtype 1 (mGluR1) Using [^11C]ITMM with Ultra-High Specific Activity in Small-Animal PET” (PLoS ONE, 2015).
Like-named read-outs stand apart in the source and are kept apart here.

Key:
mGluR1 [1] = molecular target: T1, mGluR1 (Rattus norvegicus, UniProt P23385); set-up: from tissue; host or cells: cerebellum homogenate; method as in PMID 22316010; settings: affinity for mGluR1; cited from earlier work
T1 sequence (P23385 19-1199): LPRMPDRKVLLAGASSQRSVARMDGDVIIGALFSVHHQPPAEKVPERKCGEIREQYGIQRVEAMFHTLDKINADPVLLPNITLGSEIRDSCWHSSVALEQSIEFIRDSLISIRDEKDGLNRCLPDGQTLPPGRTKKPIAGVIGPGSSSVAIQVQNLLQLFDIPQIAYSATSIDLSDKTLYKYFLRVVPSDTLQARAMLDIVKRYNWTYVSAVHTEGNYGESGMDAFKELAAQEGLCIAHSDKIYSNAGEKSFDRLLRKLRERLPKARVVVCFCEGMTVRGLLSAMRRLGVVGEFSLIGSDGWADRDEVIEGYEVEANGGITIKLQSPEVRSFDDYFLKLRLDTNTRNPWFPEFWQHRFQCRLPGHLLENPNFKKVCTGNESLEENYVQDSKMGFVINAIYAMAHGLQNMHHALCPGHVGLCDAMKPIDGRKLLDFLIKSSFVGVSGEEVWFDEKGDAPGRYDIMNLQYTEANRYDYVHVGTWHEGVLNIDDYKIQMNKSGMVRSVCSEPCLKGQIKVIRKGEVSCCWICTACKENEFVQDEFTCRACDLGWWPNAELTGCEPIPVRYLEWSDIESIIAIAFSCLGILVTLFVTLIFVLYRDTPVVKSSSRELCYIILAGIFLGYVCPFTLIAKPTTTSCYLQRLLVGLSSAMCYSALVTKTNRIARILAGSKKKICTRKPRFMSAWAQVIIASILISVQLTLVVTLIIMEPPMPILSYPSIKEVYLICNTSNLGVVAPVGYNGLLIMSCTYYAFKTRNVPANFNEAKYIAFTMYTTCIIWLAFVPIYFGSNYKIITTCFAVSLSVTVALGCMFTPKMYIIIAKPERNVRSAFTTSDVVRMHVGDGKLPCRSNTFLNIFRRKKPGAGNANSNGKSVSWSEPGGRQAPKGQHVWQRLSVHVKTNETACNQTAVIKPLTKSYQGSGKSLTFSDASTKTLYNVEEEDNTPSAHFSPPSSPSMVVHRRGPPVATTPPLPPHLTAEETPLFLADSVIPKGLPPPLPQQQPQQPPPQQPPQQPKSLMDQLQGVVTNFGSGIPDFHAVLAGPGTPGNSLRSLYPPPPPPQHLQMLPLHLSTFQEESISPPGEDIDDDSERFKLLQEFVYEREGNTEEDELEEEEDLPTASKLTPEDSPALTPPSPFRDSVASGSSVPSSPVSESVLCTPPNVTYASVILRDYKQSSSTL

mGluR1 [2] = test system: mGluR1; set-up: method as in PMID 23804329; settings: cited from earlier work; for total distribution volume (V T): human brain
mGluR1 [3] = molecular target: T1, mGluR1; test: Small-animal PET with [^11C]ITMM: time-activity curves, radioactive uptake (SUV) in brain regions; type: in vivo; set-up: from tissue; host or cells: living SD rat brain (in vivo PET)
Procedure: Subsequently, a SD rat was secured in a custom-designed chamber and placed in a small-animal PET scanner (Inveon, Siemens Medical Solutions, Knoxville, TN, USA). Body temperature was maintained using a 40°C water circulation system (T/Pump TP401, Gaymar Industries, Orchard Park, NY, USA). A 24-gauge intravenous catheter (Terumo Medical Products, Tokyo, Japan) was placed in the tail vein of the rat for a bolus injection.
(§1) A bolus (0.5 mL) of [^11C]ITMM with conventional or ultra-high SA was injected for 10 s via a catheter inserted in the tail vein. Dynamic emission scans in three-dimensional list mode were performed for 90 min (10 s x 12 frames, 20 s x 3 frames, 30 s x 3 frames, 60 s x 3 frames, 150 s x 3 frames, and 300 s x 15 frames). For counting radioactivity, blood samples were manually acquired at intervals of 10 s (0.05 mL for 50 s), 1-min intervals (0.05 mL for 5 min), and then at 10 (0.05 mL), 15 (0.2 mL), 30 (0.3 mL), 60 (0.4 mL), and 90 min (0.5 mL) after the PET scan started. For metabolite analysis, six samples of blood were obtained at 1 (0.02 mL), 5 (0.02 mL), 15 (0.05 mL), 30 (0.1 mL), 60 (0.2 mL), and 90 min (0.3 mL) after the injection. Blood samples were centrifuged at 13,000g at 4°C to separate the plasma. Levels of radioactivity in the whole blood and plasma were counted using a 1480 Wizard auto-gamma scintillation counter (Perkin-Elmer, Waltham, MA, USA). The radioactivity was corrected for decay.
PET dynamic images were reconstructed with filtered back projection using a Hunning filter with a Nyquist cut-off of 0.5 cycle/pixel. PET/MRI fused images were acquired by PMOD version 3.4 (PMOD Technologies, Zurich, Switzerland). To generate the time-activity curves (TACs) of specified brain regions, volumes of interest (VOIs) were drawn encompassing the cerebellum, hippocampus, thalamus, striatum, cingulate cortex, substantia nigra, and pons. The radioactivity was decay-corrected to the injection time and is expressed as the standardized uptake value (SUV), which was normalized to the injected radioactivity and body weight. SUV was calculated according to the following formula: SUV = (radioactivity per milliliter tissue / injected radioactivity) × gram body weight.

[4] = Metabolite analysis: fraction of unchanged [^11C]ITMM in the plasma; type: in vivo, rat; settings: for unchanged [^11C]ITMM in the plasma: the two SAs
Procedure: as §1
Metabolite analysis was performed as described previously. Briefly, whole blood samples were treated to separate the plasma, which was deproteinized with an equivalent amount of acetonitrile. An aliquot of the supernatant obtained from the plasma was analyzed by HPLC with a radiation detector [23]. Plasma protein binding was not determined in the present study. The time curves for the fraction of unchanged [^11C]ITMM in the plasma were fitted using three exponential equations, and subsequently used for kinetic analysis.

mGluR1 [5] = molecular target: T1, mGluR1; test: Estimation of equilibrium state from tissue-to-plasma concentration ratios C t'(t)/C P'(t); type: in vivo; set-up: from tissue; host or cells: living SD rat brain (in vivo PET)
Procedure: Estimations of the equilibrium state of [^11C]ITMM in each brain region were obtained using averaged plasma input functions and averaged tissue TACs. Theoretical radioactive concentrations in each brain region (C t ’) and the plasma input function of [^11C]ITMM (C P ’) were estimated using averaged measurements extracted between 5 and 90 min after the injection and subjected to three exponential least square fitting [Radioactivity (t) = A*exp(-at) + B*exp(-bt) + C*exp(-ct)].
The estimations over 90 min after the injection were calculated by extrapolating based on the equation as described above. […]

[6] = cingulate cortex, conventional SA
[7] = cingulate cortex, ultra-high SA
[8] = substantia nigra, conventional SA
[9] = substantia nigra, ultra-high SA

Which Ki (mGluR1 [1]) does the source give for `CC(C)Nc1cc(-c2csc(N(C)C(=O)c3ccc(O[11CH3])cc3)n2)ncn1` [[^11C]ITMM, N-[4-[6-(isopropylamino)pyrimidin-4-yl]-1,3-thiazol-2-yl]-4-[^11C]methoxy-N-methyl-benzamide] here?
The Ki was 12.6 nM.

And the “[^11C]ITMM that reached the brain” value (mGluR1 [2]; healthy humans, first-in human PET study)?
The value was 0.001–0.004 % of the injection dose/mL.

What about the “total distribution volume (V T)” value (mGluR1 [2]; cerebellum (mGluR1-rich region)) of the same compound?
The value was 2.61 mL/cm^3.

And the “total distribution volume (V T)” value (mGluR1 [2]; pons (mGluR1-negligible region))?
Its value is 0.52 mL/cm^3.

And the AUC (mGluR1 [3]; cerebellum, conventional SA)?
Its AUC is 243.2 ± 9.2 SUV · min.

What about the maximum uptake (mGluR1 [3]; cerebellum, conventional SA) of the same compound?
The maximum uptake was 3.0 SUV.

And the AUC (mGluR1 [3]; cerebellum, ultra-high SA)?
Its AUC is 269.9 ± 15.8 SUV · min.

And the maximum uptake (mGluR1 [3]; cerebellum, ultra-high SA)?
The maximum uptake was 3.4 SUV.

And the AUC (mGluR1 [3]; [6])?
The AUC was 156.9 ± 5.3 SUV · min.

What about the maximum uptake (mGluR1 [3]; [6]) of the same compound?
The maximum uptake was 2.0 SUV.

What about the AUC (mGluR1 [3]; [7]) of the same compound?
The AUC was 184.7 ± 11.1 SUV · min.

What about the maximum uptake (mGluR1 [3]; [7]) of the same compound?
The maximum uptake was 2.3 SUV.

What about the AUC (mGluR1 [3]; hippocampus, conventional SA) of the same compound?
Its AUC is 160.8 ± 4.6 SUV · min.

What about the maximum uptake (mGluR1 [3]; hippocampus, conventional SA) of the same compound?
The maximum uptake was 2.0 SUV.

What about the AUC (mGluR1 [3]; hippocampus, ultra-high SA) of the same compound?
Its AUC is 180.2 ± 10.9 SUV · min.

And the maximum uptake (mGluR1 [3]; hippocampus, ultra-high SA)?
Its maximum uptake is 2.2 SUV.

And the AUC (mGluR1 [3]; pons, conventional SA)?
The AUC was 56.0 ± 1.6 SUV · min.

And the maximum uptake (mGluR1 [3]; pons, conventional SA)?
Its maximum uptake is 0.9 SUV.

What about the AUC (mGluR1 [3]; pons, ultra-high SA) of the same compound?
The AUC was 62.7 ± 3.6 SUV · min.

What about the maximum uptake (mGluR1 [3]; pons, ultra-high SA) of the same compound?
Its maximum uptake is 0.9 SUV.

What about the AUC (mGluR1 [3]; striatum, conventional SA) of the same compound?
Its AUC is 169.7 ± 6.0 SUV · min.

And the maximum uptake (mGluR1 [3]; striatum, conventional SA)?
The maximum uptake was 2.1 SUV.

And the AUC (mGluR1 [3]; striatum, ultra-high SA)?
Its AUC is 197.3 ± 11.1 SUV · min.

And the maximum uptake (mGluR1 [3]; striatum, ultra-high SA)?
The maximum uptake was 2.4 SUV.

What about the AUC (mGluR1 [3]; [8]) of the same compound?
Its AUC is 149.9 ± 6.7 SUV · min.

And the maximum uptake (mGluR1 [3]; [8])?
Its maximum uptake is 1.8 SUV.

And the AUC (mGluR1 [3]; [9])?
The AUC was 178.9 ± 10.8 SUV · min.

And the maximum uptake (mGluR1 [3]; [9])?
Its maximum uptake is 2.2 SUV.

And the AUC (mGluR1 [3]; thalamus, conventional SA)?
Its AUC is 188.4 ± 6.9 SUV · min.

And the maximum uptake (mGluR1 [3]; thalamus, conventional SA)?
The maximum uptake was 2.3 SUV.

And the AUC (mGluR1 [3]; thalamus, ultra-high SA)?
The AUC was 214.2 ± 12.2 SUV · min.

And the maximum uptake (mGluR1 [3]; thalamus, ultra-high SA)?
The maximum uptake was 2.6 SUV.

And the “delay of peak time of radioactivity” value (mGluR1 [3]; ultra-high SA compared with conventional SA, brain regions)?
The value was 4 to 10 min.

What about the “Unchanged form in the plasma” value ([4]; 1 min after injection, conventional SA) of the same compound?
Its value is 95.2 ± 1.2%.

And the “Unchanged form in the plasma” value ([4]; 1 min after injection, ultra-high SA)?
The value was 97.3 ± 0.6%.

What about the “Unchanged form in the plasma” value ([4]; 5 min after injection, conventional SA) of the same compound?
Its value is 74.0 ± 2.1%.

What about the “Unchanged form in the plasma” value ([4]; 5 min after injection, ultra-high SA) of the same compound?
The value was 77.1 ± 3.2%.

What about the “Unchanged form in the plasma” value ([4]; 15 min after injection, conventional SA) of the same compound?
Its value is 53.7 ± 2.6%.

And the “unchanged [^11C]ITMM in the plasma” value ([4]; 15 min after injection)?
The value was “roughly 55%”.

And the “Unchanged form in the plasma” value ([4]; 15 min after injection, ultra-high SA)?
Its value is 56.2 ± 4.0%.

What about the “Unchanged form in the plasma” value ([4]; 30 min after injection, conventional SA) of the same compound?
Its value is 36.8 ± 2.6%.

And the “Unchanged form in the plasma” value ([4]; 30 min after injection, ultra-high SA)?
The value was 40.0 ± 4.0%.

What about the “Unchanged form in the plasma” value ([4]; 60 min after injection, conventional SA) of the same compound?
Its value is 21.7 ± 2.0%.

And the “Unchanged form in the plasma” value ([4]; 60 min after injection, ultra-high SA)?
Its value is 24.7 ± 2.9%.

And the “Unchanged form in the plasma” value ([4]; 90 min after injection, conventional SA)?
Its value is 15.7 ± 1.3%.

What about the “unchanged [^11C]ITMM in the plasma” value ([4]; 90 min after injection) of the same compound?
Its value is “roughly 15%”.

What about the “Unchanged form in the plasma” value ([4]; 90 min after injection, ultra-high SA) of the same compound?
The value was 18.2 ± 2.5%.

And the “bindings reached, of the equilibrium state” value (mGluR1 [5]; both SA conditions, all brain regions, 90 min PET)?
The value was 80–98%.

And the equilibrium times (mGluR1 [5]; both SA conditions, all brain regions, after the injection)?
The equilibrium times was 100 to 150 min.

And the estimated equilibrium time (mGluR1 [5]; cerebellum, conventional SA)?
Its estimated equilibrium time is 150 min.

What about the “uptake of radioactivity reached, of equilibrium state” value (“uptake of radioactivity reached” below) (mGluR1 [5]; cerebellum, conventional SA, 90 min PET) of the same compound?
The value was 80%.

What about the estimated equilibrium time (mGluR1 [5]; cerebellum, ultra-high SA) of the same compound?
Its estimated equilibrium time is 150 min.

And the “uptake of radioactivity reached” value (mGluR1 [5]; cerebellum, ultra-high SA, 90 min PET)?
The value was 82%.

What about the estimated equilibrium time (mGluR1 [5]; [6]) of the same compound?
The estimated equilibrium time was 100 min.

And the “uptake of radioactivity reached” value (mGluR1 [5]; cingulate cortex, conventional SA, 90 min PET)?
Its value is 96%.

What about the estimated equilibrium time (mGluR1 [5]; [7]) of the same compound?
The estimated equilibrium time was 120 min.

And the “uptake of radioactivity reached” value (mGluR1 [5]; cingulate cortex, ultra-high SA, 90 min PET)?
The value was 91%.

What about the estimated equilibrium time (mGluR1 [5]; hippocampus, conventional SA) of the same compound?
Its estimated equilibrium time is 120 min.

And the “uptake of radioactivity reached” value (mGluR1 [5]; hippocampus, conventional SA, 90 min PET)?
The value was 93%.

And the estimated equilibrium time (mGluR1 [5]; hippocampus, ultra-high SA)?
Its estimated equilibrium time is 130 min.

And the “uptake of radioactivity reached” value (mGluR1 [5]; hippocampus, ultra-high SA, 90 min PET)?
Its value is 89%.

And the estimated equilibrium time (mGluR1 [5]; pons, conventional SA)?
Its estimated equilibrium time is 110 min.

And the “uptake of radioactivity reached” value (mGluR1 [5]; pons, conventional SA, 90 min PET)?
Its value is 94%.

And the estimated equilibrium time (mGluR1 [5]; pons, ultra-high SA)?
The estimated equilibrium time was 100 min.

And the “uptake of radioactivity reached” value (mGluR1 [5]; pons, ultra-high SA, 90 min PET)?
Its value is 98%.

And the estimated equilibrium time (mGluR1 [5]; striatum, conventional SA)?
The estimated equilibrium time was 120 min.

What about the “uptake of radioactivity reached” value (mGluR1 [5]; striatum, conventional SA, 90 min PET) of the same compound?
The value was 93%.

And the estimated equilibrium time (mGluR1 [5]; striatum, ultra-high SA)?
Its estimated equilibrium time is 130 min.

What about the “uptake of radioactivity reached” value (mGluR1 [5]; striatum, ultra-high SA, 90 min PET) of the same compound?
Its value is 90%.

What about the estimated equilibrium time (mGluR1 [5]; [8]) of the same compound?
Its estimated equilibrium time is 110 min.

What about the “uptake of radioactivity reached” value (mGluR1 [5]; substantia nigra, conventional SA, 90 min PET) of the same compound?
Its value is 94%.

What about the estimated equilibrium time (mGluR1 [5]; [9]) of the same compound?
Its estimated equilibrium time is 100 min.

What about the “uptake of radioactivity reached” value (mGluR1 [5]; substantia nigra, ultra-high SA, 90 min PET) of the same compound?
Its value is 98%.

What about the estimated equilibrium time (mGluR1 [5]; thalamus, conventional SA) of the same compound?
The estimated equilibrium time was 120 min.

And the “uptake of radioactivity reached” value (mGluR1 [5]; thalamus, conventional SA, 90 min PET)?
The value was 91%.

What about the estimated equilibrium time (mGluR1 [5]; thalamus, ultra-high SA) of the same compound?
The estimated equilibrium time was 140 min.

What about the “uptake of radioactivity reached” value (mGluR1 [5]; thalamus, ultra-high SA, 90 min PET) of the same compound?
Its value is 87%.
